Results reported in US11446287B2, “Compounds and methods for EP300 or CBP modulation and indications therefor” (Opna Immuno-Oncology SA, priority 2019, dated 2022).

Each compound was assayed against T1, Recombinant human CBP containing the bromodomain (CBP-BD (1043-1159)) (Homo sapiens, UniProt Q92793) (assay: CBP Alphascreen binding assay). Settings: read-out: CREBBP (CBP) IC50.
T1 construct: Recombinant human CBP bromodomain (CBP-BD (1043-1159)); made in house; host or cells: E. coli BL21-CodonPlus (DE3), modified pET vector
T1 sequence (Q92793 1081-1197): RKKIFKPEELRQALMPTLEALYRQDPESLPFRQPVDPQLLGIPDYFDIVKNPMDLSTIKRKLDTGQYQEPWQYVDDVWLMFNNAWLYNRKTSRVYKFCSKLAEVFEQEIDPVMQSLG
Method in brief: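 Buffer: 50 mM HEPES pH 7.5, 50 mM NaCl, 0.01% BSA, 0.01% Triton X-100, 2 mM DTT. The signal was normalised to plate controls and fitted with a four-parameter curve to give IC50.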

SMILES | IC50 [µM]
Cc1noc(C)c1-c1cnc2c(c1)c(-c1c(Cl)cc(C(=O)O)cc1Cl)cn2[C@@H](C)c1ccccn1 [P-0197, (S)-3,5-dichloro-4-(5-(3,5-dimethylisoxazol-4-yl)-1-(1-(pyridin-2-yl)ethyl)-1H-pyrrolo[2,3-b]pyridin-3-yl)benzoic acid] | 0.0001 to 1
CCOc1cccc(Cl)c1-n1cc(-c2ccccc2)c2ncc(-c3c(C)noc3C)cc21 [P-0224, 4-(1-(2-chloro-6-ethoxyphenyl)-3-phenyl-1H-pyrrolo[3,2-b]pyridin-6-yl)-3,5-dimethylisoxazole] | 1 to 8
Cc1noc(C)c1-c1cnc2c(c1)c(-c1ccc(C(=O)O)cc1OC(F)(F)F)cn2-c1cnccc1C#N [P-0204, 4-(1-(4-cyanopyridin-3-yl)-5-(3,5-dimethylisoxazol-4-yl)-1H-pyrrolo[2,3-b]pyridin-3-yl)-3-(trifluoromethoxy)benzoic acid] | 0.0001 to 1
Cc1noc(C)c1-c1cnc2c(c1)c(-c1ccc(C(=O)O)cc1OCC(F)(F)F)cn2C(C1CC1)C1CC1 [P-0214, 4-(1-(dicyclopropylmethyl)-5-(3,5-dimethylisoxazol-4-yl)-1H-pyrrolo[2,3-b]pyridin-3-yl)-3-(2,2,2-trifluoroethoxy)benzoic acid] | 0.0001 to 1
CCOc1cccc(C#N)c1-n1cc(-c2ccccc2)c2ncc(-c3c(C)noc3C)cc21 [P-0206, 2-(6-(3,5-dimethylisoxazol-4-yl)-3-phenyl-1H-pyrrolo[3,2-b]pyridin-1-yl)-3-ethoxybenzonitrile] | 0.0001 to 1
COC(=O)c1cc(OC)c(-n2cc(-c3ccccc3)c3ncc(-c4c(C)noc4C)cc32)c(OC)c1 [P-0219, methyl 4-(6-(3,5-dimethylisoxazol-4-yl)-3-phenyl-1H-pyrrolo[3,2-b]pyridin-1-yl)-3,5-dimethoxybenzoate] | 0.0001 to 1
